One experiment concerns S. aureus. The experiment can be described thus: MIC by broth microdilution, S. aureus. To be noted: cation adjusted Mueller Hinton broth, 35° C. 20 hours. The class given is cell-based, Staphylococcus aureus. Background: Dilution methods test growth across graded concentrations, often in twofold steps.
The subject of another experiment is A. baumannii. Put plainly: MIC by broth microdilution, A. baumannii (WT). The class given is cell-based, Acinetobacter baumannii. The conditions noted are these: for MIC A. baumannii: RPMI medium supplemented with 10% FCS, 35° C. 20 hours.
Experiment [1] deals with Enterococcus faecium (strain NCTC 12204). The experiment can be described thus: MIC by broth microdilution, E. faecium. Type of experiment: cell-based.
Experiment [2] relates to Enterococcus faecalis (strain ATCC 51575). Put plainly: MIC by broth microdilution, E. faecalis. The class given is cell-based.
Experiment [3] has as its system Staphylococcus epidermidis (strain ATCC 12228). The experiment can be described thus: MIC by broth microdilution, S. epidermidis. Type of experiment: cell-based.
Experiment [4] deals with H. influenzae (strain ATCC 49247). Put plainly: MIC by broth microdilution, H. influenzae. Type of experiment: cell-based, Hemophilus influenzae.
The next experiment concerns A. baumannii RpoB H535Q. Put plainly: microbe, parasite or virus in culture. The class given is cell-based, Acinetobacter baumannii. The conditions noted are these: for MIC: Acinetobacter baumannii, RPOBH535Q, 20 h.
For the next experiment, the system named is A. baumannii RpoB H535C. Put plainly: microbe, parasite or virus in culture. Type of experiment: cell-based, Acinetobacter baumannii. The conditions noted are these: for MIC: Acinetobacter baumannii, RPOBH535C, 20 h.
For the next experiment, the system named is A. baumannii RpoB H535L. Put plainly: microbe, parasite or virus in culture. The conditions noted are these: for MIC: Acinetobacter baumannii, RPOBH535L, 20 h. Type of experiment: cell-based, Acinetobacter baumannii.
Experiment [5] deals with A. baumannii RpoB H535Q/S521T. The experiment can be described thus: microbe, parasite or virus in culture. Type of experiment: cell-based, Acinetobacter baumannii. The conditions noted are these: Acinetobacter baumannii, RPOBH535Q/S521T.
The next experiment has as its system A. baumannii RpoB L542F. The experiment can be described thus: microbe, parasite or virus in culture. Type of experiment: cell-based, Acinetobacter baumannii. The conditions noted are these: Acinetobacter baumannii, RPOBL542F, 20 h.
Experiment [6] deals with S. pneumoniae (strain ATCC 49619). Put plainly: MIC by broth microdilution, S. pneumoniae. The class given is cell-based, Streptococcus pneumoniae. The conditions noted are these: strain ATCC 49619, cation adjusted Mueller Hinton broth + 5% laked horse blood.
Experiment [7] concerns S. pyogenes (strain IHMA 1117021). The experiment can be described thus: MIC by broth microdilution, S. pyogenes. The class given is cell-based, Streptococcus pyogenes. The conditions noted are these: strain IHMA 1117021, cation adjusted Mueller Hinton broth + 5% laked horse blood.
Experiment [8] relates to M. abscessus (strain ATCC 19977). Put plainly: MIC by broth microdilution, M. abscessus. Type of experiment: cell-based, Mycobacterium abscessus. The conditions noted are these: strain ATCC 19977, Middlebrook 7H9 broth + ADC.
Experiment [9] deals with M. tuberculosis (H37Rv strain ATCC 27294). The class given is cell-based, Mycobacterium tuberculosis.
In experiment [10] the test system is M. smegmatis (strain ATCC 700084). The experiment can be described thus: MIC, M. smegmatis (BacTiter-Glo). Type of experiment: cell-based, Mycobacterium smegmatis. To be noted: strain ATCC 700084, Middlebrook 7H9 + ADC, 90% growth inhibition, 20 hours.

Values after ≈ are worked out from the molar mass of the structure shown. Like-named read-outs stand apart in the source and are kept apart here.

Regarding `CO[C@H]1/C=C/O[C@@]2(C)Oc3c(C)c(O)c4c(c3C2=O)C2=NC3(CC5CCC(C3)N5C)NC2=C(NC(=O)/C(C)=C\C=C\[C@H](C)[C@H](O)[C@@H](C)[C@@H](O)[C@@H](C)[C@H](OC(C)=O)[C@@H]1C)C4=O` (single isomer, unassigned) [Compound 13B], the MIC S. aureus with S. aureus came out at 0.016 µg/mL (≈ 0.0193 µM). Besides, the MIC was at most 0.002 µg/mL with A. baumannii (Acinetobacter baumannii, 20 h, read-out: A. baumannii MIC, WT, Table 4, RPMI + FCS); 0.125 µg/mL (≈ 0.15 µM) in experiment [1] (Enterococcus faecium, NCTC12204, read-out: MIC E. faecium); 0.5 µg/mL (≈ 0.602 µM) in experiment [2] (Enterococcus faecalis, ATCC51575, read-out: MIC E. faecalis); under 0.002 µg/mL in experiment [3] (Staphylococcus epidermidis, ATCC12228, read-out: MIC S. epidermidis); 0.125 µg/mL (≈ 0.15 µM) in experiment [4] (Haemophilus influenzae, ATCC49247, read-out: MIC H. influenzae); at most 0.002 µg/mL with A. baumannii RpoB H535Q (read-out: A. baumannii MIC, RpoB H535Q, Table 4, RPMI + FCS). For the same compound, the MIC is at most 0.002 µg/mL in the experiment on A. baumannii RpoB H535Q (read-out: MIC, RpoB mutation H535Q, Table 5 part 1 c2, 1st H535Q isolate, RPMI + 10% FCS); 4 µg/mL in the experiment with A. baumannii RpoB H535Q (read-out: MIC, RpoB mutation H535Q, Table 5 part 1 c3, 2nd H535Q isolate, RPMI + 10% FCS); 2 µg/mL in the experiment with A. baumannii RpoB H535Q (read-out: MIC, RpoB mutation H535Q, Table 5 part 1 c4, 3rd H535Q isolate, RPMI + 10% FCS); at most 0.002 µg/mL in the experiment on A. baumannii RpoB H535C (read-out: A. baumannii MIC, RpoB H535C, Table 4, RPMI + FCS); at most 0.002 µg/mL with A. baumannii RpoB H535C (read-out: MIC, RpoB mutation H535C, Table 5 part 2 c1, 1st H535C isolate, RPMI + 10% FCS); 0.002 µg/mL in the experiment on A. baumannii RpoB H535C (read-out: MIC, RpoB mutation H535C, Table 5 part 2 c2, 2nd H535C isolate, RPMI + 10% FCS). The MIC was 0.004 µg/mL in the experiment on A. baumannii RpoB H535C (read-out: MIC, RpoB mutation H535C, Table 5 part 2 c3, 3rd H535C isolate, RPMI + 10% FCS); 0.016 µg/mL in the experiment with A. baumannii RpoB H535C (read-out: MIC, RpoB mutation H535C, Table 5 part 2 c4, 4th H535C isolate, RPMI + 10% FCS); 0.03 µg/mL in the experiment with A. baumannii RpoB H535L (read-out: A. baumannii MIC, RpoB H535L, Table 4, RPMI + FCS); 0.004 µg/mL with A. baumannii RpoB H535L (read-out: MIC, RpoB mutation H535L, Table 5 part 2 c5, 1st H535L isolate, RPMI + 10% FCS); at most 0.002 µg/mL with A. baumannii RpoB H535L (read-out: MIC, RpoB mutation H535L, Table 5 part 2 c6, 2nd H535L isolate, RPMI + 10% FCS); 0.25 µg/mL with A. baumannii RpoB H535L (read-out: MIC, RpoB mutation H535L, Table 5 part 3 c1, 3rd H535L isolate, RPMI + 10% FCS). In addition, the MIC was 0.03 µg/mL with A. baumannii RpoB H535L (read-out: MIC, RpoB mutation H535L, Table 5 part 3 c6, 4th H535L isolate, RPMI + 10% FCS); 0.03 µg/mL in the experiment on A. baumannii RpoB H535L (read-out: MIC, RpoB mutation H535L, Table 5 part 3 c7, 5th H535L isolate, RPMI + 10% FCS); 0.5 µg/mL in experiment [5] (read-out: MIC, RpoB mutation H535Q/S521T, Table 5 part 1 c5, 1st H535Q/S521T isolate, RPMI + 10% FCS); 1 µg/mL in [5] (read-out: MIC, RpoB mutation H535Q/S521T, Table 5 part 1 c6, 2nd H535Q/S521T isolate, RPMI + 10% FCS); 0.002 µg/mL in the experiment on A. baumannii RpoB L542F (read-out: MIC, RpoB mutation L542F, Table 5 part 3 c2, 1st L542F isolate, RPMI + 10% FCS); 0.125 µg/mL with A. baumannii RpoB L542F (read-out: MIC, RpoB mutation L542F, Table 5 part 3 c3, 2nd L542F isolate, RPMI + 10% FCS). This compound also registered an MIC A. baumannii in the experiment on A. baumannii of under 0.002 µg/mL.
As to `CCCN1C2CCC1CC1(C2)N=C2C(=C3NC(=O)/C(C)=C\C=C\[C@H](C)[C@H](O)[C@@H](C)[C@@H](O)[C@@H](C)[C@H](OC(C)=O)[C@H](C)[C@@H](OC)/C=C/O[C@@]4(C)Oc5c(C)c(O)c(c2c5C4=O)C3=O)N1` (single isomer, unassigned) [Compound 20B], in the experiment on S. aureus, the MIC S. aureus amounted to 0.004 µg/mL (≈ 0.00466 µM). In the experiment with A. baumannii, this compound registered an MIC A. baumannii of under 0.002 µg/mL. Moreover, the “A. baumannii MIC, WT” value with A. baumannii (Table 4, RPMI + FCS) was at most 0.002 µg/mL. This compound came in with an MIC E. faecium in experiment [1] (strain NCTC 12204, cation adjusted Mueller Hinton broth) of 0.5 µg/mL (≈ 0.582 µM). In experiment [2] (strain ATCC 51575, cation adjusted Mueller Hinton broth), the MIC E. faecalis was determined as 1 µg/mL (≈ 1.16 µM). Moreover, the MIC S. epidermidis in experiment [3] (strain ATCC 12228, cation adjusted Mueller Hinton broth) was under 0.002 µg/mL. Further, the MIC S. pneumoniae in experiment [6] is under 0.002 µg/mL. Besides, the MIC S. pyogenes in experiment [7] was under 0.002 µg/mL. In [4] (strain ATCC 49247, Hemophilus test medium broth), this compound registered an MIC H. influenzae of 0.25 µg/mL (≈ 0.291 µM). Besides, the MIC M. abscessus in experiment [8] came out at 8 µg/mL. In [9], the MIC M. tuberculosis is 0.01 µg/mL (≈ 0.0116 µM). Further, the MIC M. smegmatis in experiment [10] was 0.29 µg/mL. Moreover, in the experiment with A. baumannii RpoB H535Q (Table 4, RPMI + FCS), the “A. baumannii MIC, RpoB H535Q” value was found to be 0.004 µg/mL. For the same compound, in the experiment on A. baumannii RpoB H535C (Table 4, RPMI + FCS), the “A. baumannii MIC, RpoB H535C” value was found to be 0.008 µg/mL. The “A. baumannii MIC, RpoB H535L” value in the experiment with A. baumannii RpoB H535L (Table 4, RPMI + FCS) came to 0.5 µg/mL.

The values above are taken from US20250101039A1, “RIFAMYCIN DERIVATIVES FOR THE TREATMENT OF DISEASES” (priority 2022, published 2025).
